# ChEMBL document CHEMBL3217567, “Differential activation of soluble guanylate cyclase by a series of aryl disulfanyl dinitrate esters” (Medchemcomm, 2014)
# Legend:
# [1] = species: Rattus norvegicus; experiment: Activation of Sprague-Dawley rat soluble guanylate cyclase after 10 mins in presence of cysteine relative to GTN
# [2] = species: Rattus norvegicus; experiment: (§1) Activation of Sprague-Dawley rat soluble guanylate cyclase after 10 mins in presence of cysteine
# [3] = target: Soluble guanylate cyclase (Homo sapiens) (UniProt Q02153+O75343+P33402+Q02108); experiment: Activation of soluble guanylate cyclase (unknown origin) assessed as apparent initial rate of oxidation of oxyhemoglobin in presence of cysteine relative to GTN; type: protein-complex assay
# [4] = species: Rattus norvegicus; experiment: Activation of Sprague-Dawley rat soluble guanylate cyclase after 10 mins relative to GTN
# [5] = Activation of Sprague-Dawley rat soluble guanylate cyclase after 10 mins
# [6] = as §1
SMILES,Emax [1],Activity [2],Ratio [3],Efficacy [4],EC50 [5],EC50 [6]
O=[N+]([O-])OCC(CSSc1ccc(Cl)cc1)O[N+](=O)[O-] (stereo not drawn),195%,Dose-dependent effect,–,–,–,–
COc1ccc(SSCC(CO[N+](=O)[O-])O[N+](=O)[O-])cc1 (stereo not drawn),245%,Dose-dependent effect,2,–,–,–
O=[N+]([O-])OCC(CSSc1ccccc1)O[N+](=O)[O-] (stereo not drawn),201%,Dose-dependent effect,–,–,–,–
Cc1ccc(SSCC(CO[N+](=O)[O-])O[N+](=O)[O-])cc1 (stereo not drawn),279%,Dose-dependent effect,–,114%,170 µM,–
O=[N+]([O-])OCC(CSSc1ccc(Br)cc1)O[N+](=O)[O-] (stereo not drawn),218%,Dose-dependent effect,–,60%,40 µM,–
O=[N+]([O-])OCC(CO[N+](=O)[O-])O[N+](=O)[O-] [NITROGLYCERIN],–,–,–,–,–,200 µM
O=[N+]([O-])OCC(CSSc1ccc(F)cc1)O[N+](=O)[O-] (stereo not drawn),192%,Dose-dependent effect,–,–,–,–
